Experimental data reported in patent publication US20230110757A1, “METHODS FOR TREATING ANIMALS, FEED, DRINKING WATER, WASH WATER, PROCESSING EQUIPMENT, PACKAGING MATERIALS, AND FOOD PRODUCTS” (EVOQ NANO, INC., priority 2021, published 2023).

Tested on: E. coli, KwikStik, ATCC #51813
Experiment: Antibacterial efficacy test, RLU (ATP) counts post treatment
Assay type: cell-based
Procedure: An antibacterial efficacy test was carried out comparing an “Attostat” nanoparticle formulation (8 nm size) against silver nitrate and against the National Institute of Standards and Technology (NIST) Standard Nanocomposix 10 nm silver nanoparticles. The NIST nanoparticles are formed by a chemical reduction process that utilizes citrate as reducing and capping agent.
Relative Light Unit (RLU) counts were recorded at 12 hours and 24 hours post treatment. RLU measurements were carried out using a Hygiena SystemSURE Plus V.2 SN067503 RLU meter with Hygenia AquaSnap TOTAL ATP Water Test Cat #U143 Lot #153019. Culturing media was Hardy Diagnostics Buffered Peptone Water Lot #118272. Samples were prepared with the nanoparticle treatments and then diluted with the media to provide the tested concentrations. The test organism (Microbiologics, E. coli, KwikStik, ATCC #51813, Ref #0791 K, Lot #791-1-6) was incubated in fresh Buffered Peptone Water growth media for 24 hours prior to exposure to the nanoparticle treatments.

## O=[N+]([O-])[O-].[Ag+] [AgNO3 Silver Nitrate, silver nitrate]
0.25 ppm (mg/L)
  RLU Counts at 12 Hours Post Exposure to Nanoparticle Treatment: 80 RLU
  RLU as percentage of control at 12 Hours Post Treatment: 1.2%
  RLU Counts at 24 Hours Post Exposure to Nanoparticle Treatment: 25 RLU
  RLU as percentage of control at 24 Hours Post Treatment: 0.34%
0.5 ppm (mg/L)
  RLU Counts at 12 Hours Post Exposure to Nanoparticle Treatment: 75 RLU
  RLU as percentage of control at 12 Hours Post Treatment: 1.1%
  RLU Counts at 24 Hours Post Exposure to Nanoparticle Treatment: 46 RLU
  RLU as percentage of control at 24 Hours Post Treatment: 0.62%
1.0 ppm (mg/L)
  RLU Counts at 12 Hours Post Exposure to Nanoparticle Treatment: 84 RLU
  RLU as percentage of control at 12 Hours Post Treatment: 1.3%
  RLU Counts at 24 Hours Post Exposure to Nanoparticle Treatment: 30 RLU
  RLU as percentage of control at 24 Hours Post Treatment: 0.41%
